{FAM} = 6-carboxyfluorescein (6-FAM) label

Data set [1] concerns the target T1, central domain of ERCC1 (ERCC196-214) (Homo sapiens, UniProt P07992).
T1 construct: His6 (N); made in house; host or cells: E. coli BL21(DE3)
T1 sequence (P07992 96-214): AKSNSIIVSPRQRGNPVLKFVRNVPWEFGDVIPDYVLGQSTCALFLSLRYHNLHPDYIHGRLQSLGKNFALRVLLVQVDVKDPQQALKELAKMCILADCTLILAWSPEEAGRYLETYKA
The conditions noted are these: Tsodikov et al., 2005; direct titration; read-out: equilibrium binding constant for DNA binding to the central domain of ERCC1; cited from earlier work.

Data set [2] has as its system NER activity in XP-A (XP2OS) cell extracts. The data set is described as follows: In vitro NER assay in XP-A (XP2OS) cell extract supplemented with wild-type or mutant XPA protein. Format: biochemical. The conditions noted are these: XPA-deficient cell extract, 200 and 800 nM XPA, cisplatin crosslink plasmid. From the text: In Vitro NER assay. […] The wild-type, […], […] and […]/[…]

In the next data set the test system is DNA three-way junction. Put plainly: DNA binding assay (band shift) with 5'-labeled DNA three-way junction. Conditions: 1 nM DNA, 4-150 nM XPA. As to the method: DNA binding assays. The three-way junction DNA substrate described previously (substrate 7 in Table 1 of Hohl et al., 2003, J. Biol. Chem., 278, 19500-19508) was 5′-^32P-end labeled and incubated at 1 nM concentration with various amounts of XPA in EMSA buffer (25 mM Hepes·KOH pH 8.0, 30 mM KCl, 10% glycerol, 1 mM DTT, 1 mM EDTA, 0.1 mg/ml BSA) at a reaction volume of 15 μl. After equilibration at room temperature for 30 min, the samples were loaded on a 5% (37.5:1) native polyacrylamide gel containing 0.5×TBE and electrophoresed at 90 V for 2 hrs. Gels were dried and the radioactive bands visualized by autoradiography.

For data set [3], the target named is T2, ERCC1 central domain (ERCC1 96-214 / 92-214) (Homo sapiens, UniProt P07992 SEQ:96-214).
T2 sequence: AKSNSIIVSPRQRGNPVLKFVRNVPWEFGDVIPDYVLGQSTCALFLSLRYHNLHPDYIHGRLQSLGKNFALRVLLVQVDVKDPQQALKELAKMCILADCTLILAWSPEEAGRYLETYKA
Put plainly: FP; 2.33 uM ERCC1, 50 nM DNA; XPA67-80 peptide competes (EC50 micromolar); 20 mM Tris pH 8.0, 20 mM NaCl, 2 mM bME. The conditions noted are these: tags: N-terminal His6; label: 5' 6-FAM.

The target of data set [4] is T3, XPA67-80 peptide (KIIDTGGGFILEEE) (Homo sapiens, UniProt P23025 SEQ:67-80).
T3 chain: KIIDTGGGFILEEE
The data set is described as follows: FP; peptide does not detectably bind DNA (data not shown); nonspecific anisotropy increase and quenching above 30 uM. The conditions noted are these: protein: synthetic; tags: synthetic peptide, solid phase, HPLC-purified; label: 5' 6-FAM.

In the case of “DNA: 5' 6-FAM-labeled single-stranded 40mer DNA, 5'-CCGGTGGCCAGCGCTCGGCG(T)20 (DNA CCGGTGGCCAGCGCTCGGCGTTTTTTTTTTTTTTTTTTTT; DNA, 5' {FAM}, backbone not given here)”, the Kd in data set [1] is 1500 nM. Regarding “XPA-WT: purified full length wild-type XPA protein expressed in E. coli”, the “NER activity restored by XPA protein” value in data set [2] is on record as “robust NER activity”. The “binding to DNA three-way junction” value with DNA three-way junction is reported as “bound with similar affinity”.

Take CCGGTGGCCAGCGCTCGGCGTTTTTTTTTTTTTTTTTTTT (ssDNA) [6FAM-labeled 40mer ssDNA]: the results for the binding result in data set [3] and in data set [4] were “binds” and “no binding”, respectively.

Values taken from US20100331233A1, “CRYSTAL OF XPA AND ERCC1 COMPLEX AND USES THEREOF” (priority 2007, published 2010).
